Source: PubChem BioAssay AID1918994 (Molecular Pharmacology Branch, DTP, NCI, 2023)
pIC50: −log10 of the molar value.

Test system: 292921-168-R-J2-PDC complex spheroid growth
Test: Anticancer human tumor 292921-168-R-J2-PDC patient-derived pancreatic carcinoma cell line growth inhibition [AhR]
Conditions: for pIC50: curve of first compound; for viability, T/C: stronger effect = lower value
Procedure, shortened: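 Agents were dosed in half-log steps down from roughly clinical Cmax, or from 10 microM where Cmax was unknown, alone and with AhR antagonists. Read-out: percent test/control growth of tumor spheroids containing HUVEC and MSC stromal cells.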

[1] = second compound 0.1 µM, first compound 0.0316 µM
[2] = second compound 0.1 µM, first compound 0.1 µM
[3] = second compound 0.1 µM, first compound 0.316 µM
[4] = second compound 0.1 µM, first compound 1 µM
[5] = second compound 0.1 µM, first compound 3.16 µM
[6] = second compound 0.1 µM, first compound 10 µM
[7] = second compound 0.316 µM, first compound 0.0316 µM
[8] = second compound 0.316 µM, first compound 0.1 µM
[9] = second compound 0.316 µM, first compound 0.316 µM
[10] = second compound 0.316 µM, first compound 1 µM
[11] = second compound 0.316 µM, first compound 3.16 µM
[12] = second compound 0.316 µM, first compound 10 µM
[13] = second compound 1 µM, first compound 0.0316 µM
[14] = second compound 1 µM, first compound 0.1 µM
[15] = second compound 1 µM, first compound 0.316 µM
[16] = second compound 1 µM, first compound 1 µM
[17] = second compound 1 µM, first compound 3.16 µM
[18] = second compound 1 µM, first compound 10 µM
[19] = second compound 3.16 µM, first compound 0.0316 µM
[20] = second compound 3.16 µM, first compound 0.1 µM
[21] = second compound 3.16 µM, first compound 0.316 µM
[22] = second compound 3.16 µM, first compound 1 µM
[23] = second compound 3.16 µM, first compound 3.16 µM
[24] = second compound 3.16 µM, first compound 10 µM
[25] = second compound 10 µM, first compound 0.0316 µM
[26] = second compound 10 µM, first compound 0.1 µM
[27] = second compound 10 µM, first compound 0.316 µM
[28] = second compound 10 µM, first compound 1 µM
[29] = second compound 10 µM, first compound 3.16 µM
[30] = second compound 10 µM, first compound 10 µM
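Note: spheroids exposed to compounds for seven days after three days of growth.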

Row | Compound | pIC50 (second compound 0.1 µM) | pIC50 (second compound 0.316 µM) | pIC50 (second compound 1 µM) | pIC50 (second compound 3.16 µM) | pIC50 (second compound 10 µM) | viability, T/C [1] [%] | viability, T/C [2] [%] | viability, T/C [3] [%] | viability, T/C [4] [%] | viability, T/C [7] [%] | viability, T/C [8] [%] | viability, T/C [9] [%] | viability, T/C [10] [%] | viability, T/C [13] [%] | viability, T/C [14] [%] | viability, T/C [15] [%] | viability, T/C [16] [%] | viability, T/C [19] [%] | viability, T/C [20] [%] | viability, T/C [21] [%] | other results
1 | CC(C)c1c(-c2ccccc2)nc2c(C#N)c[nH]n2c1=O + Cc1ccccc1N=Nc1ccc(NC(=O)c2ccnn2C)c(C)c1 | < 5.00 | < 5.00 | < 5.00 | < 5.00 | < 5.00 | 86.5 | 86 | 91.9 | 88.7 | 79.3 | 85.2 | 86.1 | 81.2 | 84.2 | 86.2 | 80.8 | 87 | 78.6 | 72.3 | 78.8 | viability, T/C [5]: 89.8%; viability, T/C [6]: 96.5%; viability, T/C [11]: 94%; viability, T/C [12]: 85.9%; viability, T/C [17]: 83.6%; viability, T/C [18]: 81.8%; viability, T/C [22]: 76.8%; viability, T/C [23]: 74%; viability, T/C [24]: 65.8%; viability, T/C [25]: 58.1%; viability, T/C [26]: 61.2%; viability, T/C [27]: 58.6%; viability, T/C [28]: 63.9%; viability, T/C [29]: 65%; viability, T/C [30]: 50.3%
2 | COc1cc(C2c3cc4c(cc3C(OC3OC5COC(C)OC5C(O)C3O)C3COC(=O)C23)OCO4)cc(OC)c1O (stereo not given) + Cc1cncc(-c2nc(NCCc3c[nH]c4ccccc34)c3ncn(C(C)C)c3n2)c1 | 6.25 | 6.24 | 6.54 | 6.58 | > 7.50 | 92.6 | 92.2 | 64 | 34.1 | 78.7 | 73.6 | 64.8 | 35.9 | 77.1 | 67 | 48.9 | 28.7 | 62.3 | 62.5 | 47.5 | viability, T/C [5]: 24.2%; viability, T/C [6]: 13.3%; viability, T/C [11]: 24.7%; viability, T/C [12]: 12.9%; viability, T/C [17]: 23.4%; viability, T/C [18]: 13.1%; viability, T/C [22]: 25.9%; viability, T/C [23]: 21.2%; viability, T/C [24]: 13.5%; viability, T/C [25]: 46.5%; viability, T/C [26]: 43.6%; viability, T/C [27]: 37.2%; viability, T/C [28]: 26.2%; viability, T/C [29]: 22.3%; viability, T/C [30]: 20.2%
3 | COc1cccc2c1C(=O)c1c(O)c3c(c(O)c1C2=O)CC(O)(C(=O)CO)CC3OC1CC(N)C(O)C(C)O1 (stereo not given) + Cc1cncc(-c2nc(NCCc3c[nH]c4ccccc34)c3ncn(C(C)C)c3n2)c1 | > 7.50 | > 7.50 | > 7.50 | > 7.50 | > 7.50 | 30.9 | 25.2 | 9.88 | 0.21 | 30.6 | 23.2 | 9.81 | 0.2 | 29.3 | 22.7 | 9.15 | 0.34 | 26.8 | 22.1 | 9.58 | viability, T/C [5]: 0.78%; viability, T/C [6]: 2.79%; viability, T/C [11]: 0.66%; viability, T/C [12]: 2.98%; viability, T/C [17]: 1.61%; viability, T/C [18]: 3.01%; viability, T/C [22]: 0.2%; viability, T/C [23]: 1.48%; viability, T/C [24]: 3.82%; viability, T/C [25]: 25.3%; viability, T/C [26]: 21.3%; viability, T/C [27]: 10.8%; viability, T/C [28]: 0.46%; viability, T/C [29]: 2.04%; viability, T/C [30]: 4.23%
4 | Nc1ncn(C2CC(O)C(CO)O2)c(=O)n1 (stereo not given) + Cc1cncc(-c2nc(NCCc3c[nH]c4ccccc34)c3ncn(C(C)C)c3n2)c1 | < 6.00 | < 6.00 | < 6.00 | < 6.00 | 8.01 | 84 | 89.6 | 80.6 | 65.6 | 88.1 | 79.3 | 78.6 | 70.7 | 80.4 | 77.8 | 82 | 73.7 | 76.5 | 67.6 | 64.1 | viability, T/C (second compound 0.1 µM, first compound 0.00316 µM): 99.6%; viability, T/C (second compound 0.1 µM, first compound 0.01 µM): 100%; viability, T/C (second compound 0.316 µM, first compound 0.00316 µM): 84.1%; viability, T/C (second compound 0.316 µM, first compound 0.01 µM): 86.2%; viability, T/C (second compound 1 µM, first compound 0.00316 µM): 80.5%; viability, T/C (second compound 1 µM, first compound 0.01 µM): 86.9%; viability, T/C (second compound 3.16 µM, first compound 0.00316 µM): 70.7%; viability, T/C (second compound 3.16 µM, first compound 0.01 µM): 71.9%; viability, T/C [22]: 62.3%; viability, T/C (second compound 10 µM, first compound 0.00316 µM): 51.9%; viability, T/C (second compound 10 µM, first compound 0.01 µM): 49%; viability, T/C [25]: 50%; viability, T/C [26]: 47.1%; viability, T/C [27]: 43.2%; viability, T/C [28]: 45.5%
